Measured values reported in patent US20220401514A1, “ANTIMICROBIAL, BACTERIOPHAGE-DERIVED POLYPEPTIDES AND THEIR USE AGAINST GRAM-NEGATIVE AND ACID-FAST BACTERIA” (CONTRAFECT CORPORATION, priority 2019, published 2022).
In brackets after ≈: the same amount, converted by molar mass. Like-named read-outs stand apart in the source and are kept apart here.

Key:
[1] = test system: eight different strains of five species of Gram-negative bacteria; test: MBEC in eight strains of five species of Gram-negative bacteria; assay type: cell-based; settings: 24 h biofilm in LB, 16 h treatment
Experimental: Determination of Minimal Biofilm Eradicating Concentrations (MBEC). […] The OD600 of extracted crystal violet was determined. The MBEC value of each sample was determined as the minimum drug concentration required to remove >95% of biofilm biomass as assessed by crystal violet quantitation (in comparison to untreated controls).
MBEC values were likewise determined for Chp2, Chp2-M1, and Chp10-M1 in eight different strains of five species of Gram-negative bacteria. […] The films were then washed and stained with crystal violet to visualize the MBEC.

[2] = test system: M. kansasii Hauduroy ATCC 12478; test: 45 hr MIC against M. kansasii (NTM), Mueller Hinton broth; assay type: cell-based, Mycobacterium kansasii
Enterobacter cloacae = test: microbe, parasite or virus in culture; assay type: cell-based; settings: for MIC50 / MIC100 / MIC Range: E. cloacae isolates (n per peptide in table)
In short: (§1)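 Human serum was added to CAA broth for these MIC determinations with peptides.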

Escherichia coli = test: microbe, parasite or virus in culture; assay type: cell-based; settings: for MIC50 / MIC100 / MIC Range: E. coli isolates (n per peptide in table)
In short: as §1

P. aeruginosa (CFS 1292) = test: microbe, parasite or virus in culture; assay type: cell-based, Pseudomonas aeruginosa; settings: Pseudomonas aeruginosa
Pseudomonas aeruginosa = test: microbe, parasite or virus in culture; assay type: cell-based; settings: for MIC50 / MIC100 / MIC Range: P. aeruginosa isolates (n per peptide in table)
[3] = test system: Pseudomonas aeruginosa, Escherichia coli, Enterobacter cloacae, Klebsiella pneumoniae, and Acinetobacter baumannii; test: MIC against a range of Gram-negative organisms (statements covering several species); assay type: cell-based; settings: Tables 40-44 isolates
In short: as §1

[4] = Stability assessment in 100% CAA; assay type: in vitro ADME; design: unit not given beside the values
Experimental: Stability was assessed after incubation in 100% human serum at 37° C. after 10 minutes, 1 hour, and 2 hours.
Stability assessment was further conducted in 100% CAA and rabbit serum using the same methodology discussed above.

[5] = test system: P. aeruginosa strain CFS-1292; test: MIC at pH 6, pH 7 and pH 8; assay type: cell-based, Pseudomonas aeruginosa
Experimental: The Chp peptides were further evaluated at varying pH levels. The MIC values were determined at pH 6, pH 7, and pH 8 for 18 different Chp peptides against P. aeruginosa strain CFS-1292. […]

S. maltophilia = test: MIC against S. maltophilia isolates; assay type: cell-based, Stenotrophomonas maltophilia; settings: for MIC50 / MIC100 / MIC Range: S. maltophilia isolates (n per peptide in table)
In short: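 Chp peptides were tested on a set of S. maltophilia isolates (n = isolates per species), with minimal inhibitory concentrations given in μg/mL.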

Klebsiella pneumoniae = assay type: cell-based; settings: for MIC50 / MIC100 / MIC Range: K. pneumoniae isolates (n per peptide in table); for MIC: Klebsiella pneumoniae HM-44, CAA supplemented with human serum
Experimental: Determination of Minimal Inhibitory Concentrations (MIC).
Additional MIC testing was performed for several peptides against the ESKAPE pathogens Escherichia coli, Enterobacter cloacae, Klebsiella pneumoniae, and Acinetobacter baumannii, in CAA supplemented with human serum (Table D).

[6] = Enterobacter cloacae (ATCC 13047, MIC control strain), RSC 1240, CAA without human serum
[7] = Enterobacter cloacae ATCC 13047, CAA supplemented with human serum
[8] = E. coli (ATCC 25922, MIC control strain), RSC 813, CAA without human serum
[9] = E. coli (HM346, colon, Crohn's disease), RSC 1212, CAA without human serum
[10] = Escherichia coli ATCC 25922, CAA supplemented with human serum
[11] = P. aeruginosa 453 (Human clinical isolate, HSS), RSC 1292, CAA without human serum
[12] = P. aeruginosa (ATCC 14213, human hip wound), RSC 1111, CAA without human serum
[13] = P. aeruginosa (ATCC 15152, abscess in middle ear), RSC 1110, CAA without human serum
[14] = P. aeruginosa (ATCC 15692, infected wound), RSC 489, CAA without human serum
[15] = P. aeruginosa (ATCC 15692, infected wound), RSC 1115, CAA without human serum
[16] = P. aeruginosa (ATCC 17646, human liver abscess), RSC 1109, CAA without human serum
[17] = P. aeruginosa (ATCC 19142, tracheobronchial secretion), RSC 1108, CAA without human serum
[18] = P. aeruginosa (ATCC 25102, bacteriophage host), RSC 1114, CAA without human serum
[19] = P. aeruginosa (ATCC 27853, MIC control strain), RSC 815, CAA without human serum
[20] = P. aeruginosa (ATCC BAA-27, lab strain), RSC 1113, CAA without human serum
[21] = P. aeruginosa (PAO1, alternate source, HER1018), RSC 490, CAA without human serum

Compound: NC[C@H]1O[C@H](O[C@H]2[C@H](O)[C@@H](O[C@H]3O[C@H](CO)[C@@H](O)[C@H](N)[C@H]3O)[C@H](N)C[C@@H]2N)[C@H](N)C[C@@H]1O [tobramycin, reference compound]
- MBEC ([1]; A. baumanni (ATCC BAA-747)): 0.03 µg/mL
- MBEC ([1]; E. cloacae (CCUG 63317)): <0.03 µg/mL
- MBEC ([1]; E. coli (ATCC 25922)): <0.03 µg/mL
- MBEC ([1]; E. coli (ATCC 35329)): <0.03 µg/mL
- MBEC ([1]; E. coli (EC2)): <0.03 µg/mL
- MBEC ([1]; K. pneumoniae (ATCC 700603)): 1 µg/mL
- MBEC ([1]; K. pneumoniae (KP1)): 1 µg/mL
- MBEC ([1]; P. aeruginosa (ATCC 27853)): 0.03 µg/mL
- MIC ([2]; Mycobacterium kansasii, ATCC12478, 45 h, read-out: 45 hr MIC): 16 µg/mL (≈ 34.2 µM)
- MIC (Enterobacter cloacae; Enterobacter cloacae, CCUG63317, E. cloacae (CCUG 63317), control agents of Table 8, read-out: MIC (in brackets beside MBEC)): < 0.5 µg/mL
- MIC (Escherichia coli; Escherichia coli, ATCC25922, E. coli (ATCC 25922), control agents of Table 8, read-out: MIC (in brackets beside MBEC)): < 0.5 µg/mL
- MIC (Escherichia coli; Escherichia coli, ATCC35329, E. coli (ATCC 35329), control agents of Table 8, read-out: MIC (in brackets beside MBEC)): < 0.5 µg/mL
- MIC (Escherichia coli; Escherichia coli, E. coli (EC2), control agents of Table 8, read-out: MIC (in brackets beside MBEC)): < 0.5 µg/mL
- MIC (P. aeruginosa (CFS 1292); read-out: MIC Center): 0.5 µg/mL (≈ 1.07 µM)
- MIC (P. aeruginosa (CFS 1292); read-out: MIC Periphery): 0.5 µg/mL (≈ 1.07 µM)
- MIC (Pseudomonas aeruginosa; Pseudomonas aeruginosa, ATCC27853, P. aeruginosa (ATCC 27853), control agents of Table 8, read-out: MIC (in brackets beside MBEC)): < 0.5 µg/mL

Compound: MARRRYRLPRRRSRRLFSRTALRMHPRNRLRRIMRGGIRF [Chp6]
- activity (good = MIC100 of ≤4) against all of P. aeruginosa, K. pneumoniae, A. baumannii, E. cloacae, and E. coli [3]: good activity
- MIC (100% CAA) [4]: 0.25
- 45 hr MIC [2]: 1 µg/mL
- MIC50 (Enterobacter cloacae): 0.5 µg/mL
- MIC100 (Enterobacter cloacae): 1 µg/mL
- MIC Range (Enterobacter cloacae): 0.25 to 2 µg/mL
- MIC (Enterobacter cloacae; [6]): 4 µg/mL
- MIC (Enterobacter cloacae; [7]): 2 µg/mL
- MIC (Escherichia coli; [8]): 2 µg/mL
- MIC (Escherichia coli; [9]): 2 µg/mL
- MIC50 (Escherichia coli): 0.5 µg/mL
- MIC100 (Escherichia coli): 1 µg/mL
- MIC Range (Escherichia coli): 0.25 to 2 µg/mL
- MIC (Escherichia coli; [10]): 1 µg/mL
- MIC ([5]; CAA media (pH 7)): 1 µg/mL
- MIC ([5]; pH 6): 2 µg/mL
- MIC ([5]; pH 7): 0.25 µg/mL
- MIC ([5]; pH 8): 1 µg/mL
- MIC (Pseudomonas aeruginosa; [11]): 2 µg/mL
- MIC (Pseudomonas aeruginosa; [12]): 4 µg/mL
- MIC (Pseudomonas aeruginosa; [13]): 2 µg/mL
- MIC (Pseudomonas aeruginosa; [14]): 2 µg/mL
- MIC (Pseudomonas aeruginosa; [15]): 4 µg/mL
- MIC (Pseudomonas aeruginosa; [16]): 4 µg/mL
- MIC (Pseudomonas aeruginosa; [17]): 2 µg/mL
- MIC (Pseudomonas aeruginosa; [18]): 2 µg/mL
- MIC (Pseudomonas aeruginosa; [19]): 1 µg/mL
- MIC (Pseudomonas aeruginosa; [20]): 2 µg/mL
- MIC (Pseudomonas aeruginosa; [21]): 1 µg/mL
- MIC50 (Pseudomonas aeruginosa): 1 µg/mL
- MIC100 (Pseudomonas aeruginosa): 1 µg/mL
- MIC Range (Pseudomonas aeruginosa): 0.5 to 1 µg/mL
- MIC50 (S. maltophilia): 0.5 µg/mL
- MIC100 (S. maltophilia): 1 µg/mL
- MIC Range (S. maltophilia): 0.25 to 1 µg/mL
- activity against S. maltophilia (S. maltophilia; Table 45 isolates): active
- MIC50 (Klebsiella pneumoniae): 0.5 µg/mL
- MIC100 (Klebsiella pneumoniae): 1 µg/mL
- MIC Range (Klebsiella pneumoniae): 0.125 to 1 µg/mL
- MIC (Klebsiella pneumoniae): 0.125 µg/mL

Compound: MVRRRRLRRRISRRIFRRTVARVGRRRRSFRGGIRF [Chp1]
- MIC (100% CAA) [4]: 0.5
- 45 hr MIC [2]: 4 µg/mL
- MIC50 (Enterobacter cloacae): 2 µg/mL
- MIC100 (Enterobacter cloacae): 4 µg/mL
- MIC Range (Enterobacter cloacae): 2 to 4 µg/mL
- MIC (Enterobacter cloacae; [6]): 8 µg/mL
- MIC (Enterobacter cloacae; [7]): 4 µg/mL
- MIC (Escherichia coli; [8]): 8 µg/mL
- MIC (Escherichia coli; [9]): 8 µg/mL
- MIC50 (Escherichia coli): 2 µg/mL
- MIC100 (Escherichia coli): 4 µg/mL
- MIC Range (Escherichia coli): 1 to 4 µg/mL
- MIC (Escherichia coli; [10]): 2 µg/mL
- MIC ([5]; CAA media (pH 7)): 1 µg/mL
- MIC ([5]; pH 6): 0.5 µg/mL
- MIC ([5]; pH 7): 1 µg/mL
- MIC ([5]; pH 8): 1 µg/mL
- MIC (Pseudomonas aeruginosa; [11]): 8 µg/mL
- MIC (Pseudomonas aeruginosa; [12]): 8 µg/mL
- MIC (Pseudomonas aeruginosa; [13]): 4 µg/mL
- MIC (Pseudomonas aeruginosa; [14]): 4 µg/mL
- MIC (Pseudomonas aeruginosa; [15]): 8 µg/mL
- MIC (Pseudomonas aeruginosa; [16]): 8 µg/mL
- MIC (Pseudomonas aeruginosa; [17]): 8 µg/mL
- MIC (Pseudomonas aeruginosa; [18]): 8 µg/mL
- MIC (Pseudomonas aeruginosa; [19]): 8 µg/mL
- MIC (Pseudomonas aeruginosa; [20]): 8 µg/mL
- MIC (Pseudomonas aeruginosa; [21]): 8 µg/mL
- MIC50 (Pseudomonas aeruginosa): 2 µg/mL
- MIC100 (Pseudomonas aeruginosa): 4 µg/mL
- MIC Range (Pseudomonas aeruginosa): 1 to 4 µg/mL
- MIC50 (S. maltophilia): 2 µg/mL
- MIC100 (S. maltophilia): 4 µg/mL
- MIC Range (S. maltophilia): 1 to 8 µg/mL
- MIC50 (Klebsiella pneumoniae): 2 µg/mL
- MIC100 (Klebsiella pneumoniae): 2 µg/mL
- MIC Range (Klebsiella pneumoniae): 1 to 4 µg/mL
- MIC (Klebsiella pneumoniae): 1 µg/mL
